We go through 1 compound from patent US12077503B2, “Substituted cyclic amides and their use as herbicides” (FMC CORPORATION, priority 2015, dated 2024).

What all share (format): in vivo
Test [1] deals with Galium (catchweed bedstraw, Galium aparine). Briefly: Test A postemergence. As to conditions: Galium, post-emergence, 240 h, 125 g ai/ha, postemergence; visual injury after approximately 10 d; 0 to 100 scale (0 no effect, 100 complete control); read-out: Plant response rating, Galium. A digest of the protocol:
(§1)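 Ratings of 0 (no effect) to 100 (complete control) come from visual comparison with untreated controls roughly 10 d after treatment. Test chemicals, formulated in a non-phytotoxic solvent mixture with surfactant, were applied either as a preemergence directed soil spray on seeded soil or postemergence to one- to two-leaf plants 2 to 10 cm tall.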

Test [2] has as its system ragweed (common ragweed, Ambrosia elatior). Description: Test A postemergence. Conditions: Ambrosia artemisiifolia, post-emergence, 240 h, 125 g ai/ha, postemergence; visual injury after approximately 10 d; 0 to 100 scale (0 no effect, 100 complete control); read-out: Plant response rating, Ragweed. A digest of the protocol:
as §1

For test [3], the system named is ryegrass, Italian (Italian ryegrass, Lolium multiflorum). Briefly: Test A postemergence. As to conditions: Lolium multiflorum, post-emergence, 240 h, 125 g ai/ha, postemergence; visual injury after approximately 10 d; 0 to 100 scale (0 no effect, 100 complete control); read-out: Plant response rating, Ryegrass, Italian. A digest of the protocol: as §1
In a further test the test system is corn (Zea mays). Briefly: Test A postemergence. As to conditions: Zea mays, post-emergence, 240 h, 125 g ai/ha, postemergence; visual injury after approximately 10 d; 0 to 100 scale (0 no effect, 100 complete control). A digest of the protocol:
as §1

The test system of test [4] is giant foxtail (Setaria faberii). Briefly: Test A postemergence. Conditions: Setaria faberi, post-emergence, 240 h, 125 g ai/ha, postemergence; visual injury after approximately 10 d; 0 to 100 scale (0 no effect, 100 complete control); read-out: Plant response rating, Foxtail, Giant. A digest of the protocol:
as §1

In test [5] the test system is wheat (Triticum aestivum). Briefly: Test A postemergence. As to conditions: Triticum aestivum, post-emergence, 240 h, 125 g ai/ha, postemergence; visual injury after approximately 10 d; 0 to 100 scale (0 no effect, 100 complete control); read-out: Plant response rating, Wheat. A digest of the protocol:
as §1

The test system of test [6] is pigweed (Amaranthus retroflexus). Briefly: Test A postemergence. Conditions: Amaranthus retroflexus, post-emergence, 240 h, 125 g ai/ha, postemergence; visual injury after approximately 10 d; 0 to 100 scale (0 no effect, 100 complete control); read-out: Plant response rating, Pigweed. A digest of the protocol: as §1
The test system of test [7] is blackgrass (Alopecurus myosuroides). Description: Test A postemergence. As to conditions: Alopecurus myosuroides, post-emergence, 240 h, 125 g ai/ha, postemergence; visual injury after approximately 10 d; 0 to 100 scale (0 no effect, 100 complete control); read-out: Plant response rating, Blackgrass. A digest of the protocol: as §1
For test [8], the system named is barnyardgrass (Echinochloa crus-galli). Description: Test A postemergence. As to conditions: Echinochloa crus-galli, post-emergence, 240 h, 125 g ai/ha, postemergence; visual injury after approximately 10 d; 0 to 100 scale (0 no effect, 100 complete control); read-out: Plant response rating, Barnyardgrass. A digest of the protocol:
as §1

In test [9] the test system is ragweed (common ragweed, Ambrosia elatior). Briefly: Test A preemergence. Conditions: Ambrosia artemisiifolia, pre-emergence, 240 h, preemergence, read-out: Plant response rating, Ragweed. A digest of the protocol: as §1
Test [10] concerns ryegrass, Italian (Italian ryegrass, Lolium multiflorum). Briefly: Test A preemergence. As to conditions: Lolium multiflorum, pre-emergence, 240 h, 125 g ai/ha, preemergence; visual rating after approx. 10 d; 0 to 100 scale where 0 is no effect and 100 is complete control; read-out: Plant response rating, Ryegrass, Italian. A digest of the protocol: as §1
The test system of test [11] is giant foxtail (Setaria faberii). Briefly: Test A preemergence. Conditions: Setaria faberi, pre-emergence, 240 h, preemergence, read-out: Plant response rating, Foxtail, Giant. A digest of the protocol: as §1
For test [12], the system named is pigweed (Amaranthus retroflexus). Briefly: Test A preemergence. As to conditions: Amaranthus retroflexus, pre-emergence, 240 h, preemergence, read-out: Plant response rating, Pigweed.
The test system of a further test is Kochia (Kochia scoparia). Briefly: Test A preemergence. As to conditions: Bassia scoparia, pre-emergence, 240 h, preemergence, read-out: Plant response rating, Kochia. A digest of the protocol:
as §1

For test [13], the system named is barnyardgrass (Echinochloa crus-galli). Description: Test A preemergence. Conditions: Echinochloa crus-galli, pre-emergence, 240 h, preemergence, read-out: Plant response rating, Barnyardgrass. A digest of the protocol: as §1
Setting [14] is: 125 g ai/ha, visual rating after approx. 10 d, 0 to 100 scale where 0 is no effect and 100 is complete control.
The mark [15] stands for this setting: 500 g ai/ha, 0 to 100 scale, 0 = no effect, 100 = complete control.

On to `CN1CC(c2cccc(OC/C=C/Cl)c2)C(C(=O)Nc2cccc(F)c2F)C1=O` (centres unmarked) [Compound 772], for which the pest or weed control at 125 g/ha in [1] was 0%; in test [2] it was 0%; in test [3], 0%; in test [4], 30%; in [6], 0%; in test [7] it was 0%. The pest or weed control at 125 g/ha worked out at 0% in test [8]; 0% in test [9] (setting [14]); 0% in test [10]; 50% in test [11] (setting [14]); 0% in test [12] (setting [14]); 0% with Kochia (Kochia scoparia) (setting [14]). Also, the pest or weed control at 125 g/ha in test [13] (setting [14]) amounted to 0%. The compound further yielded a Corn plant response rating (crop injury, 0 = no effect, 100 = complete kill) at 125 g/ha with corn (Zea mays) of 0%. Moreover, in [5], the plant injury at 125 g/ha is 0%. Moreover, the pest or weed control at 500 g/ha in test [9] (setting [15]) came to 0%; in test [11] (setting [15]), 90%; in [12] (setting [15]), 0%; with Kochia (Kochia scoparia) (setting [15]), 30%; in test [13] (setting [15]) it was 40%.
